Test results: patent US12077503B2, “Substituted cyclic amides and their use as herbicides” (FMC CORPORATION, priority 2015, dated 2024)
Where two headings read alike, the source gives them in different places.

How the values were obtained:
Format in all cases: in vivo
Kochia (Kochia scoparia) [1] = assay: Test A preemergence; conditions: Bassia scoparia, pre-emergence, 240 h; for pest or weed control at 125 g/ha: 125 g ai/ha; for pest or weed control at 500 g/ha: 500 g ai/ha
How it was run: (§1)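 Visual injury scores from 0, no effect, to 100, complete control, were assigned versus untreated controls roughly 10 d after treatment in the greenhouse. Test chemicals, formulated with surfactant in a non-phytotoxic solvent, were applied to planted seeds as a preemergence soil spray or postemergence to one- to two-leaf plants 2 to 10 cm tall, in loam–sand soil.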

[2] = test system: sedge, umbrella (small-flower umbrella sedge, Cyperus difformis); assay: Test B flooded paddy test; conditions: Cyperus difformis, 250 g ai/ha, Flood
How it was run: (§2)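 Visual ratings (0 none to 100 complete control) are relative to untreated plants, taken 13–15 d after treatment in a greenhouse. Test material went straight into floodwater standing 3 cm above the soil, kept constant, on plants at the 2-leaf stage.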

[3] = test system: barnyardgrass (Echinochloa crus-galli); assay: Test B flooded paddy test; conditions: Echinochloa crus-galli, 250 g ai/ha, Flood
How it was run: as §2

[4] = test system: ducksalad (Heteranthera limosa); assay: Test B flooded paddy test; conditions: Heteranthera limosa, 250 g ai/ha, Flood
How it was run: as §2

rice (Oryra sativa) = assay: Test B flooded paddy test; conditions: Oryza sativa, 250 g ai/ha, Flood
How it was run: as §2

[5] = test system: barnyardgrass (Echinochloa crus-galli); assay: Test A postemergence; conditions: Echinochloa crus-galli, post-emergence, 240 h, Postemergence; for pest or weed control at 125 g/ha: 125 g ai/ha, visual rating about 10 d after treatment, read-out: Barnyardgrass plant response rating (0 to 100 scale, 0 no effect, 100 complete control); for pest or weed control at 500 g/ha: 500 g ai/ha, visual injury, 0 to 100 scale (0 no effect, 100 complete control), approx. 10 d, read-out: Plant response rating, Barnyardgrass
How it was run: as §1

[6] = test system: giant foxtail (Setaria faberii); assay: Test A postemergence; conditions: Setaria faberi, post-emergence, 240 h, Postemergence; for pest or weed control at 125 g/ha: 125 g ai/ha, visual rating about 10 d after treatment, read-out: Foxtail, Giant plant response rating (0 to 100 scale); for pest or weed control at 500 g/ha: 500 g ai/ha, visual injury, 0 to 100 scale (0 no effect, 100 complete control), approx. 10 d, read-out: Plant response rating, Foxtail, Giant
How it was run: as §1

corn (Zea mays) = assay: Test A postemergence; conditions: Zea mays, post-emergence, 240 h, Postemergence; for plant injury at 125 g/ha: 125 g ai/ha, visual rating about 10 d after treatment, read-out: Corn plant response rating (0 to 100 scale); for Corn plant response rating (crop injury, 0 = no effect, 100 = complete kill) at 500 g/ha: 500 g ai/ha, visual injury, 0 to 100 scale (0 no effect, 100 complete control), approx. 10 d
How it was run: as §1

[7] = test system: Galium (catchweed bedstraw, Galium aparine); assay: Test A postemergence; conditions: Galium, post-emergence, 240 h, Postemergence; for pest or weed control at 125 g/ha: 125 g ai/ha, visual rating about 10 d after treatment, read-out: Galium plant response rating (0 to 100 scale); for pest or weed control at 500 g/ha: 500 g ai/ha, visual injury, 0 to 100 scale (0 no effect, 100 complete control), approx. 10 d, read-out: Plant response rating, Galium
How it was run: as §1

Kochia (Kochia scoparia) [8] = assay: Test A postemergence; conditions: Bassia scoparia, post-emergence, 240 h, Postemergence; for pest or weed control at 125 g/ha: 125 g ai/ha, visual rating about 10 d after treatment, read-out: Kochia plant response rating (0 to 100 scale); for pest or weed control at 500 g/ha: 500 g ai/ha, visual injury, 0 to 100 scale (0 no effect, 100 complete control), approx. 10 d, read-out: Plant response rating, Kochia
How it was run: as §1

[9] = test system: wheat (Triticum aestivum); assay: Test A postemergence; conditions: Triticum aestivum, post-emergence, 240 h, Postemergence; for plant injury at 125 g/ha: 125 g ai/ha, visual rating about 10 d after treatment, read-out: Wheat plant response rating (0 to 100 scale); for plant injury at 500 g/ha: 500 g ai/ha, visual injury, 0 to 100 scale (0 no effect, 100 complete control), approx. 10 d, read-out: Plant response rating, Wheat
How it was run: as §1

[10] = test system: ragweed (common ragweed, Ambrosia elatior); assay: Test A postemergence; conditions: Ambrosia artemisiifolia, post-emergence, 240 h, Postemergence; for pest or weed control at 125 g/ha: 125 g ai/ha, visual rating about 10 d after treatment, read-out: Ragweed plant response rating (0 to 100 scale); for pest or weed control at 500 g/ha: 500 g ai/ha, visual injury, 0 to 100 scale (0 no effect, 100 complete control), approx. 10 d, read-out: Plant response rating, Ragweed
How it was run: as §1

[11] = test system: pigweed (Amaranthus retroflexus); assay: Test A postemergence; conditions: Amaranthus retroflexus, post-emergence, 240 h, Postemergence; for pest or weed control at 125 g/ha: 125 g ai/ha, visual rating about 10 d after treatment, read-out: Pigweed plant response rating (0 to 100 scale); for pest or weed control at 500 g/ha: 500 g ai/ha, visual injury, 0 to 100 scale (0 no effect, 100 complete control), approx. 10 d, read-out: Plant response rating, Pigweed
How it was run: as §1

[12] = test system: blackgrass (Alopecurus myosuroides); assay: Test A postemergence; conditions: Alopecurus myosuroides, post-emergence, 240 h, Postemergence; for pest or weed control at 125 g/ha: 125 g ai/ha, visual rating about 10 d after treatment, read-out: Blackgrass plant response rating (0 to 100 scale); for pest or weed control at 500 g/ha: 500 g ai/ha, visual injury, 0 to 100 scale (0 no effect, 100 complete control), approx. 10 d, read-out: Plant response rating, Blackgrass
How it was run: as §1

[13] = test system: ryegrass, Italian (Italian ryegrass, Lolium multiflorum); assay: Test A postemergence; conditions: Lolium multiflorum, post-emergence, 240 h, Postemergence; for pest or weed control at 125 g/ha: 125 g ai/ha, visual rating about 10 d after treatment, read-out: Ryegrass, Italian plant response rating (0 to 100 scale); for pest or weed control at 500 g/ha: 500 g ai/ha, visual injury, 0 to 100 scale (0 no effect, 100 complete control), approx. 10 d, read-out: Plant response rating, Ryegrass, Italian
How it was run: as §1

Compound | pest or weed control at 125 g/ha [5] [%] | pest or weed control at 500 g/ha [5] [%] | pest or weed control at 125 g/ha [6] [%] | pest or weed control at 500 g/ha [6] [%] | plant injury at 125 g/ha (corn (Zea mays)) [%] | Corn plant response rating (crop injury, 0 = no effect, 100 = complete kill) at 500 g/ha (corn (Zea mays)) [%] | pest or weed control at 125 g/ha [7] [%] | pest or weed control at 500 g/ha [7] [%] | pest or weed control at 125 g/ha (Kochia (Kochia scoparia) [8]) [%] | pest or weed control at 500 g/ha (Kochia (Kochia scoparia) [8]) [%] | plant injury at 125 g/ha [9] [%] | plant injury at 500 g/ha [9] [%] | pest or weed control at 125 g/ha [10] [%] | pest or weed control at 500 g/ha [10] [%] | pest or weed control at 125 g/ha [11] [%] | pest or weed control at 500 g/ha [11] [%] | pest or weed control at 125 g/ha [12] [%] | pest or weed control at 500 g/ha [12] [%] | pest or weed control at 125 g/ha [13] [%] | pest or weed control at 500 g/ha [13] [%] | other results
COc1cc([C@H]2CN(C)C(=O)[C@@H]2C(=O)Nc2ccccc2S(C)(=O)=O)ccc1F [Compound 1302] | 60 | 90 | 30 | 80 | 0 | 0 | 0 | 30 | 0 | 20 | 0 | 0 | 0 | 0 | 0 | 0 | 0 | 20 | 0 | 20 | pest or weed control at 125 g/ha (Kochia (Kochia scoparia) [1]; preemergence, visual injury rating, 0 to 100 scale where 0 is no effect and 100 is complete control, approximately 10 d, read-out: Kochia plant response rating): 0%; pest or weed control at 500 g/ha (Kochia (Kochia scoparia) [1]; preemergence, 0 to 100 scale where 0 is no effect and 100 is complete control, read-out: Kochia plant response rating): 60%; pest or weed control at 250 g/ha ([2]; 0 to 100 scale where 0 is no effect and 100 is complete control, read-out: Sedge, Umbrella plant response rating): 0%; pest or weed control at 250 g/ha ([3]; 0 to 100 scale where 0 is no effect and 100 is complete control, read-out: Barnyardgrass plant response rating): 20%; pest or weed control at 250 g/ha ([4]; 0 to 100 scale where 0 is no effect and 100 is complete control, read-out: Ducksalad plant response rating): 80%; pest or weed control at 250 g/ha (rice (Oryra sativa); 0 to 100 scale where 0 is no effect and 100 is complete control, read-out: Rice plant response rating): 15%
O=C1NC[C@H](c2cncs2)[C@H]1C(=O)Nc1cccc(F)c1F [Compound 1336] | 0 | 0 | 0 | 0 | 0 | 0 | 0 | 0 | 0 | 0 | 0 | 0 | 0 | 0 | 0 | 0 | 0 | 0 | 0 | 0 | pest or weed control at 500 g/ha (Kochia (Kochia scoparia) [1]; preemergence, 0 to 100 scale (0 no effect, 100 complete control), read-out: Plant response rating, Kochia): 0%; pest or weed control at 125 g/ha (Kochia (Kochia scoparia) [1]; Preemergence, 0 to 100 scale (0 no effect, 100 complete control), read-out: Plant response rating, Kochia): 0%; pest or weed control at 250 g/ha ([2]; 360 h, visually evaluated after 13 to 15 d, read-out: Plant response rating, Sedge, Umbrella (0 to 100 scale where 0 is no effect and 100 is complete control)): 0%; pest or weed control at 250 g/ha ([3]; 360 h, visually evaluated after 13 to 15 d, read-out: Plant response rating, Barnyardgrass (0 to 100 scale where 0 is no effect and 100 is complete control)): 0%; pest or weed control at 250 g/ha ([4]; 360 h, visually evaluated after 13 to 15 d, read-out: Plant response rating, Ducksalad (0 to 100 scale where 0 is no effect and 100 is complete control)): 40%; pest or weed control at 250 g/ha (rice (Oryra sativa); 360 h, visually evaluated after 13 to 15 d, read-out: Plant response rating, Rice (0 to 100 scale where 0 is no effect and 100 is complete control)): 0%
